Assay results taken from US11285189B2, “Compositions and uses of locally-applied antimicrobial synthetic cationic polypeptide(s) with enhanced performance and safety” (priority 2017, dated 2022).

Experiments:
[1] = Surface tension, Du Nouy ring; format: physicochemical; conditions: samples at 0.1 mM, room temperature
Method: Samples were prepared at 0.1 mM and assessed using TA.XT2 Texture Analyzer with a 500 g load cell, 5 cm diameter Du Nouy ring and probe speed of 0.2 mm/s at room temperature.
Surface tension of various preparations of synthetic cationic polypeptide(s) in water. Samples were prepared at 0.1 mM and assessed using TA.XT2 Texture Analyzer with a 500 g load cell, 5 cm diameter Du Nouy ring and probe speed of 0.2 mm/s at room temperature.
Surface tension: effect of acetic acid as an additive.

[2] = Kinematic viscosity, glass capillary (Ubbelohde) viscometers, 37° C.; format: physicochemical; conditions: 1 and 2 wt %
Method: FIGS. 13A-B. (a) Kinematic viscosity of various synthetic cationic polypeptide(s) in water at 1 wt % and measured using glass capillary viscometers (Ubbelohde viscometers) at a temperature of 37° C. (b) Kinematic viscosity of KrL-100/5.7 (lot BAC02) vs. bovine serum albumin; water is provided for reference.
FIG. 14. Kinematic viscosity of synthetic cationic polypeptide(s) with a lysine-L-leucine block sequence arrangement (KL) in water at 0.5 wt % and measured using glass capillary viscometers (Ubbelohde viscometers) at a temperature of 37° C.
FIG. 13A depicts kinematic viscosity values of various synthetic cationic polypeptide(s) in water at 1 wt % as measured using glass capillary viscometers (Ubbelohde viscometers). […] Albumin is an abundant blood protein and has a molecular weight of approximately 66.5 kDa and total chain length of approximately 583 amino acids units.
The latter has a longer overall chain length, a similar sized hydrophobic block, but a different composition of hydrophobic amino acid units (racemic D,L-leucine vs. enantiopure L-leucine).

Compound	effect on surface tension of water [1]	effect on viscosity of aqueous preparations [2]
[H]/N=C(\N/C(=N/[H])NCCCCCCNC(=N)NC(=N)Nc1ccc(Cl)cc1)Nc1ccc(Cl)cc1 [chlorhexidine, chlorhexidine gluconate]	little or no effect	
bovine serum albumin: abundant blood protein, approximately 66.5 kDa, approximately 583 amino acid units		little, if any effect on viscosity
polyhexamethylene biguanide [PHMB]	little or no effect	
